Like-named read-outs stand apart in the source and are kept apart here.
Tests used:
[1] = biological target: CDA (Homo sapiens (Human), UniProt P32320); settings: deamination by CDA; Chabot et al. 1983, Bouffard et al. 1993; cited from earlier work
[2] = biological target: CDA from human liver (Homo sapiens (Human), UniProt P32320); settings: Wentworth and Wolfenden 1975; cited from earlier work
[3] = tested on: A2780 human ovarian cancer xenograft; test: In vivo efficacy study in A2780 human ovarian cancer xenograft model; design: species or system female nude mice; settings: qdx5 for two weeks
Description: Animals were dosed daily from Monday to Friday for two weeks.
Female nude mice (NU/NU, strain code 088, 6 weeks old, Charles River Laboratory) were implanted subcutaneously with 5×10^6 A2780 cancer cells per mouse. On day 13 when the tumors were approximately 150 mm^3, treatment started as described in Table 9.
Tumor volume and regressions were followed over time. Tumor volume was calculated by (length×width^2)/2. Note that a complete regression was defined as no measurable tumor for at least 3 consecutive measurements; while a partial regression was defined as tumor shrinkage to equal or less than 50% of original tumor volume for 3 consecutive measurements. Tumor growth delay (TGD) was defined as the median number of days for the control and treatment groups to grow to 342.14 mm^3. The average tumor volume on the first day of treatment (day 13) is 171.07 mm^3.

[4] = biological target: cytidine deaminase (CDA) (Homo sapiens (Human), UniProt P32320); test: Effect of ER-876437 on the half-life of gemcitabine in the presence of CDA in Tris-HCl buffer at 37° C.; format: biochemical; design: half-life: dose or concentration left out as unconfirmed; settings: for half-life: cytidine deaminase (CDA) in Tris-HCl buffer, read-out: Estimated T1/2 of gemcitabine; for reduction in gemcitabine concentration: gemcitabine alone, absence of CDA, Tris-HCl buffer at 37° C., 10 hours
Chain of cytidine deaminase (CDA) (P32320 whole entry): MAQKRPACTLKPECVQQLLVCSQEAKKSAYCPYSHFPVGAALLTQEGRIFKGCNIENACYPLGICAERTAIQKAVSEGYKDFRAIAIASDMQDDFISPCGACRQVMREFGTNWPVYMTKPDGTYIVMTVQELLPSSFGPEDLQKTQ
Description: This Example employed a Phenomenex Luna C18(2) HPLC column (100 Å 4.6×250 mm 5 μm). The solvent delivery system employed an HPLC quaternary pump, low pressure mixing. An autosampler having a variable loop, 0.1 to 100 μL range and temperature controlled thermostat was used. The UV detector can employ a dual wavelength detector, a diode array detector, a variable wavelength detector or equivalent, and can be recorded using chromatographic software (e.g., Waters Empower 2 Build 2154, Agilent ChemStation software version A.09.03 or higher for HPLC or equivalent). The analytical balance employed was capable of weighing ±0.1 mg. Degassed HPLC grade water and degassed HPLC grade acetonitrile were used as solvents for the mobile phases.
Gemcitabine Standard Control: 0.2 mM gemcitabine control was prepared by weighing […] of gemcitabine in a 10 mL volumetric flask. […] Solution was labeled as gemcitabine stock solution.

Chain of CDA (P32320 whole entry): as above
Chain of CDA from human liver (P32320 whole entry): as above

Row | Compound | Km [1] | Km [2] | regressions or tumor free survivors at day 41 ([3]; gemcitabine 1 mg/kg PO alone or ER-876437 10 mg/kg PO alone) | effect on tumor growth (FIG. 3) ([3]; gemcitabine 1 mg/kg PO and/or ER-876437 10 mg/kg PO (30 minutes prior)) | TGD (tumor growth delay) ([3]; gemcitabine 1 mg/kg PO and/or ER-876437 10 mg/kg PO (30 minutes prior), delay vs vehicle to reach 342.14 mm^3) | Estimated T1/2 of gemcitabine ([4]; Gemcitabine with CDA in Tris-HCl buffer at 37° C.) | half-life ([4]; pH 7.4, Gemcitabine with CDA and ER-876437 in Tris-HCl buffer at 37° C.) | half-life ([4]; pH 7.4, Gemcitabine with CDA in Tris-HCl buffer at 37° C.) | reduction in gemcitabine concentration [4] | reduction in gemcitabine concentration ([4]; listed as Gemcitabine) | concentration of gemcitabine ([4]; presence of CDA, within 1 hour)
1 | Nc1ncn([C@@H]2O[C@H](CO)[C@@H](O)[C@H]2O)c(=O)n1 [5-azacytidine, 4-Amino-1-(β-D-ribofuranosyl)-1,3,5-triazin-2(1H)-one] | 216 ± 51 µM | 58 µM | – | – | – | – | – | – | – | – | –
2 | Nc1cnn([C@@H]2O[C@H](CO)[C@@H](O)[C@H]2O)c(=O)n1 [6-azacytidine] | – | 4200 µM | – | – | – | – | – | – | – | – | –
3 | Nc1ccn([C@@H]2O[C@H](CO)[C@@H](O)C2(F)F)c(=O)n1 [gemcitabine, 2′-deoxy-2′,2′-difluorocytidine] | 95.7 ± 8.4 µM | – | no regressions or tumor free survivors | limited efficacy | 2 days | <35 min | > 780 min | < 35 min | no reduction | did not show any degradation | ~0 % control

Reference: US9040501B2, “Compositions and methods for treating cancer” (Eisai Inc., priority 2009, dated 2015)
